Article PMC9525273 (Nature Communications, 2022)
“And” between values parts separate entries of the source, which are not always exact repeats. Equal values may be shown once. Read-outs that look alike come from different tables or passages of the source.

Legend:
[1] = target: T1, TgATP4^G419S-HA (membranes from T. gondii tachyzoites) (Toxoplasma gondii, UniProt B9QMJ0, G419S); test: Membrane ATPase assay, ATP4-associated (Na+-dependent) ATPase activity; assay type: biochemical; settings: for IC50 for ATP4-associated ATPase activity: membranes from TgATP4G419S-HA, mean ± SEM
T1 sequence (B9QMJ0 1-1338 G419S): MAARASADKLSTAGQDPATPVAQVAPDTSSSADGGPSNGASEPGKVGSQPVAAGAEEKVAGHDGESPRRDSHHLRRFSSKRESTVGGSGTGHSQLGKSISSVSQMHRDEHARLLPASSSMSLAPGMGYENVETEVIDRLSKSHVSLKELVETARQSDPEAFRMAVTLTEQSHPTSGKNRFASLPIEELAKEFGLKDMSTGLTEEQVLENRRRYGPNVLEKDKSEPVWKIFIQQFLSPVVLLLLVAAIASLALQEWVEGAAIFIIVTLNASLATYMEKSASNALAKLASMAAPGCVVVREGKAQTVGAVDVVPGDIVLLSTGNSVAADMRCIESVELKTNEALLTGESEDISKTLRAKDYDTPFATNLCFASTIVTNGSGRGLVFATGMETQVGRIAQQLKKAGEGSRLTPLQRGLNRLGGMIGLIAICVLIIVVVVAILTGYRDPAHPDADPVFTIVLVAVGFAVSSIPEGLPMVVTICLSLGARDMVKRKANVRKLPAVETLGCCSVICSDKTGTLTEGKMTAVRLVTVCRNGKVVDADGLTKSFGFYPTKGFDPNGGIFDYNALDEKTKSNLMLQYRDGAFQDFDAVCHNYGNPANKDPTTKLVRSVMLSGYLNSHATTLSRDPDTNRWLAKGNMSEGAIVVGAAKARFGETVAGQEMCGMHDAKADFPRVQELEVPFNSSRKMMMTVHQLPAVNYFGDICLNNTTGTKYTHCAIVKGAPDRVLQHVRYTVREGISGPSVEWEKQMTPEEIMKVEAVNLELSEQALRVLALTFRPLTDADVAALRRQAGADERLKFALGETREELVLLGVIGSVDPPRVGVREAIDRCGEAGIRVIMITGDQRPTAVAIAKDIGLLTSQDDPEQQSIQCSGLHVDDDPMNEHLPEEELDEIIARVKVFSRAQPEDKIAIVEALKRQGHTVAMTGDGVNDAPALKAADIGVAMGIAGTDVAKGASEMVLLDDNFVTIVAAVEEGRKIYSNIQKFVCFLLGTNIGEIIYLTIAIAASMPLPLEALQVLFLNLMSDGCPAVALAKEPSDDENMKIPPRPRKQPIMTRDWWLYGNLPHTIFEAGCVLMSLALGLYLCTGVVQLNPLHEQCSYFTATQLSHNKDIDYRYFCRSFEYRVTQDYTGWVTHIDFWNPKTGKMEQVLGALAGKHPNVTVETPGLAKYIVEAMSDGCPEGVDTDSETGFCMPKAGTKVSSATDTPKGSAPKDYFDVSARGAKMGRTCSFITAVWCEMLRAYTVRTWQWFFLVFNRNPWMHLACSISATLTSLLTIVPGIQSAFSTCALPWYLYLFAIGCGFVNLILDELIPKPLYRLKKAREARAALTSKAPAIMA
Procedure: (§1) Membranes from isolated P. falciparum or extracellular T. gondii parasites were prepared by lysing parasites in ice-cold deionized water containing a 1:500 dilution of Protease Inhibitor Cocktail Set III (Merck Millipore), then washing the membrane preparation three times in ice-cold deionized water (with protease inhibitors present for the first two washes)[15]. Protein concentrations in the membrane preparations were measured using a Bradford assay. The PiColorLock Gold Phosphate Detection System (Innova Biosciences) was used to measure the production of Pi from hydrolysis of ATP[15]. Membrane preparations were diluted in either a high Na^+ solution (yielding final conditions in the reactions of 150 mM NaCl, 20 mM KCl, 2 mM MgCl2, 50 mM Tris, pH 7.2) or a Na^+-free solution (yielding final conditions of 150 mM choline chloride, 20 mM KCl, 2 mM MgCl2, 50 mM Tris, pH 7.2) to achieve a total protein concentration of 50 μg/mL. […] The reactions were performed at 37 °C, and were initiated by the addition of 1 mM ATP (Na2ATP۰3H2O; MP Biomedicals) and terminated 10 min later by adding 100 μL of reaction mixture (in duplicate) to 25 μL “Gold mix” in a 96-well plate. “Stabiliser” was added 3 min later, and the plates incubated at room temperature in the dark for 60 min before measuring absorbance at 635 nm. Background values (averaged from wells containing all components, but to which ATP was not added until after the membrane was exposed to Gold mix) were subtracted from the data. For each treatment, the ATPase activity associated with the (Na^+-dependent) PfATP4 and TgATP4 proteins was calculated by subtracting data obtained in the low Na^+ condition (containing only the 2 mM Na^+ introduced on addition of 1 mM Na2ATP) from that obtained in the high Na^+ condition.

[2] = target: T2, TgATP4^WT (membranes from T. gondii tachyzoites) (Toxoplasma gondii, UniProt B9QMJ0); test: as above; assay type: biochemical; design: IC50 for inhibition of ATP4-associated ATPase activity, MEAN: unit: nM; settings: for IC50 for inhibition of ATP4-associated ATPase activity, MEAN: WT T. gondii membranes, source data of Table 1 (nM there); for IC50 for ATP4-associated ATPase activity: membranes from WT T. gondii (TgATP4WT), mean ± SEM
T2 sequence (B9QMJ0 1-1338): T1 sequence (B9QMJ0 1-1338 G419S)
Procedure: as §1

[3] = TgATP4G419S-HA membranes, source data of Table 1 (nM there)

SMILES: N#Cc1cc(NC(=O)[C@H]2c3ccccc3C(=O)N(CC(F)(F)F)[C@@H]2c2cccnc2)ccc1F [(+)-SJ733]
- IC50 for inhibition of ATP4-associated ATPase activity, MEAN [1, 3]: >4000
- IC50 for inhibition of ATP4-associated ATPase activity ([1]; TgATP4G419S-HA membranes, single experiments, source data of Table 1 (nM there)): >4000
- IC50 for ATP4-associated ATPase activity [1]: > 4000 (3) nM
- IC50 for inhibition of ATP4-associated ATPase activity, MEAN ([2]; MEAN): 17.77
- remaining activity at 0.000122 µM ([2]; WT T. gondii, [(+)-SJ733] 0.122 nM, MEAN, read-out: TgATP4-associated ATPase activity (% of control)): 105%
- TgATP4-associated ATPase activity (% of control) ([2]; WT T. gondii, [(+)-SJ733] 0.122 nM, single experiments, 0.000122 µM): 99.5 % of control and 113.7 % of control
- remaining activity at 0.000122 µM ([2]; WT T. gondii, [(+)-SJ733] 0.122 nM, single experiments, read-out: TgATP4-associated ATPase activity (% of control)): 102%
- remaining activity at 0.000244 µM ([2]; WT T. gondii, [(+)-SJ733] 0.244 nM, MEAN, read-out: TgATP4-associated ATPase activity (% of control)): 104%
- TgATP4-associated ATPase activity (% of control) ([2]; WT T. gondii, [(+)-SJ733] 0.244 nM, single experiments, 0.000244 µM): 103.7 % of control and 108.4 % of control
- remaining activity at 0.000244 µM ([2]; WT T. gondii, [(+)-SJ733] 0.244 nM, single experiments, read-out: TgATP4-associated ATPase activity (% of control)): 99.9%
- remaining activity at 0.0005 µM ([2]; WT T. gondii, [(+)-SJ733] 0.5 nM, MEAN, read-out: TgATP4-associated ATPase activity (% of control)): 93.6%
- TgATP4-associated ATPase activity (% of control) ([2]; WT T. gondii, [(+)-SJ733] 0.5 nM, single experiments, 0.0005 µM): 96.1 % of control and 95.1 % of control
- remaining activity at 0.0005 µM ([2]; WT T. gondii, [(+)-SJ733] 0.5 nM, single experiments, read-out: TgATP4-associated ATPase activity (% of control)): 89.6%
- remaining activity at 0.001 µM ([2]; WT T. gondii, [(+)-SJ733] 1.0 nM, MEAN, read-out: TgATP4-associated ATPase activity (% of control)): 102%
- TgATP4-associated ATPase activity (% of control) ([2]; WT T. gondii, [(+)-SJ733] 1.0 nM, single experiments, 0.001 µM): 96.8 % of control and 112.7 % of control
- remaining activity at 0.001 µM ([2]; WT T. gondii, [(+)-SJ733] 1.0 nM, single experiments, read-out: TgATP4-associated ATPase activity (% of control)): 94.9%
- remaining activity at 0.002 µM ([2]; WT T. gondii, [(+)-SJ733] 2.0 nM, MEAN, read-out: TgATP4-associated ATPase activity (% of control)): 95.7%
- TgATP4-associated ATPase activity (% of control) ([2]; WT T. gondii, [(+)-SJ733] 2.0 nM, single experiments, 0.002 µM): 71.9 % of control and 96.8 % of control and 118.4 % of control
- remaining activity at 0.0039 µM ([2]; WT T. gondii, [(+)-SJ733] 3.9 nM, MEAN, read-out: TgATP4-associated ATPase activity (% of control)): 90.6%
- TgATP4-associated ATPase activity (% of control) ([2]; WT T. gondii, [(+)-SJ733] 3.9 nM, single experiments, 0.0039 µM): 69.6 % of control and 88.2 % of control and 113.9 % of control
- remaining activity at 0.0078 µM ([2]; WT T. gondii, [(+)-SJ733] 7.8 nM, MEAN, read-out: TgATP4-associated ATPase activity (% of control)): 78.4%
- TgATP4-associated ATPase activity (% of control) ([2]; WT T. gondii, [(+)-SJ733] 7.8 nM, single experiments, 0.0078 µM): 63.9 % of control and 63.6 % of control and 107.7 % of control
- remaining activity at 0.0156 µM ([2]; WT T. gondii, [(+)-SJ733] 15.6 nM, MEAN, read-out: TgATP4-associated ATPase activity (% of control)): 52.5%
- remaining activity at 0.0313 µM ([2]; WT T. gondii, [(+)-SJ733] 31.3 nM, MEAN, read-out: TgATP4-associated ATPase activity (% of control)): 42.7%
- remaining activity at 0.0625 µM ([2]; WT T. gondii, [(+)-SJ733] 62.5 nM, MEAN, read-out: TgATP4-associated ATPase activity (% of control)): 31.7%
- remaining activity at 0.25 µM ([2]; WT T. gondii, [(+)-SJ733] 250 nM, MEAN, read-out: TgATP4-associated ATPase activity (% of control)): 20.9%
- remaining activity at 0.5 µM ([2]; WT T. gondii, [(+)-SJ733] 500 nM, MEAN, read-out: TgATP4-associated ATPase activity (% of control)): 14.7%
- IC50 for ATP4-associated ATPase activity [2]: 17.8 ± 9.2 (3) nM

SMILES: C[C@H]1Cc2c([nH]c3cc(Cl)c(F)cc23)[C@@]2(N1)C(=O)Nc1ccc(Cl)cc12 [Cipargamin]
- IC50 for inhibition of ATP4-associated ATPase activity, MEAN [1, 3]: 287.6
- IC50 for ATP4-associated ATPase activity [1]: 288 ± 111 (4) (P = 0.05) nM
- IC50 for inhibition of ATP4-associated ATPase activity, MEAN ([2]; MEAN): 8.39
- remaining activity at 60 pM ([2]; WT T. gondii, Cipargamin 0.06 nM, MEAN, read-out: TgATP4-associated ATPase activity (% of control)): 98.4%
- TgATP4-associated ATPase activity (% of control) ([2]; WT T. gondii, Cipargamin 0.06 nM, single experiments): 98.0 % of control
- remaining activity at 60 pM ([2]; WT T. gondii, Cipargamin 0.06 nM, single experiments, read-out: TgATP4-associated ATPase activity (% of control)): 98.9%
- remaining activity at 0.00012 µM ([2]; WT T. gondii, Cipargamin 0.12 nM, MEAN, read-out: TgATP4-associated ATPase activity (% of control)): 101%
- TgATP4-associated ATPase activity (% of control) ([2]; WT T. gondii, Cipargamin 0.12 nM, single experiments): 100.0 % of control and 99.7 % of control and 103.4 % of control
- remaining activity at 0.00012 µM ([2]; WT T. gondii, Cipargamin 0.12 nM, single experiments, read-out: TgATP4-associated ATPase activity (% of control)): 100%
- remaining activity at 0.00024 µM ([2]; WT T. gondii, Cipargamin 0.24 nM, MEAN, read-out: TgATP4-associated ATPase activity (% of control)): 91.8%
- TgATP4-associated ATPase activity (% of control) ([2]; WT T. gondii, Cipargamin 0.24 nM, single experiments): 81.4 % of control and 81.6 % of control and 107.2 % of control and 96.9 % of control
- remaining activity at 0.00049 µM ([2]; WT T. gondii, Cipargamin 0.49 nM, MEAN, read-out: TgATP4-associated ATPase activity (% of control)): 76.3%
- remaining activity at 0.00098 µM ([2]; WT T. gondii, Cipargamin 0.98 nM, MEAN, read-out: TgATP4-associated ATPase activity (% of control)): 66.1%
- remaining activity at 0.00195 µM ([2]; WT T. gondii, Cipargamin 1.95 nM, MEAN, read-out: TgATP4-associated ATPase activity (% of control)): 47.3%
- remaining activity at 0.0039 µM ([2]; WT T. gondii, [cipargamin] 3.9 nM, MEAN, read-out: TgATP4-associated ATPase activity (% of control)): 34.5%
- remaining activity at 0.0078 µM ([2]; WT T. gondii, [cipargamin] 7.8 nM, MEAN, read-out: TgATP4-associated ATPase activity (% of control)): 38.1%
- remaining activity at 0.0156 µM ([2]; WT T. gondii, [cipargamin] 15.6 nM, MEAN, read-out: TgATP4-associated ATPase activity (% of control)): 21.9%
- remaining activity at 0.0313 µM ([2]; WT T. gondii, [cipargamin] 31.3 nM, MEAN, read-out: TgATP4-associated ATPase activity (% of control)): 13.1%
- remaining activity at 0.0625 µM ([2]; WT T. gondii, [cipargamin] 62.5 nM, MEAN, read-out: TgATP4-associated ATPase activity (% of control)): 6.8%
- IC50 for ATP4-associated ATPase activity [2]: 8.4 ± 5.8 (4) nM
